Test results taken from ChEMBL document CHEMBL5604063, “ASAP - DENV-2 NS2B-NS3 protease fluorescence dose response” (2024).
Where “and” joins values, the source holds several entries; their conditions need not be identical. Identical values can stand only once.

Assays:
Genome polyprotein [1] = biological target: T1, Genome polyprotein (dengue virus type 2, UniProt P29990); type: functional, Thailand/16681/1984
Genome polyprotein [2] = biological target: T1, Genome polyprotein; type: functional, Thailand/16681/1984; remark: listed apart in the source

T1 sequence (P29990 1346-1475 limits assumed): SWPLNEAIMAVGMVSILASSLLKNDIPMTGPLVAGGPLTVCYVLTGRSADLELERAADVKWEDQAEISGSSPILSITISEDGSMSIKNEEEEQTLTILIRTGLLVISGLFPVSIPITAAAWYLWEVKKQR
T1 sequence (P29990 1476-2093 limits assumed): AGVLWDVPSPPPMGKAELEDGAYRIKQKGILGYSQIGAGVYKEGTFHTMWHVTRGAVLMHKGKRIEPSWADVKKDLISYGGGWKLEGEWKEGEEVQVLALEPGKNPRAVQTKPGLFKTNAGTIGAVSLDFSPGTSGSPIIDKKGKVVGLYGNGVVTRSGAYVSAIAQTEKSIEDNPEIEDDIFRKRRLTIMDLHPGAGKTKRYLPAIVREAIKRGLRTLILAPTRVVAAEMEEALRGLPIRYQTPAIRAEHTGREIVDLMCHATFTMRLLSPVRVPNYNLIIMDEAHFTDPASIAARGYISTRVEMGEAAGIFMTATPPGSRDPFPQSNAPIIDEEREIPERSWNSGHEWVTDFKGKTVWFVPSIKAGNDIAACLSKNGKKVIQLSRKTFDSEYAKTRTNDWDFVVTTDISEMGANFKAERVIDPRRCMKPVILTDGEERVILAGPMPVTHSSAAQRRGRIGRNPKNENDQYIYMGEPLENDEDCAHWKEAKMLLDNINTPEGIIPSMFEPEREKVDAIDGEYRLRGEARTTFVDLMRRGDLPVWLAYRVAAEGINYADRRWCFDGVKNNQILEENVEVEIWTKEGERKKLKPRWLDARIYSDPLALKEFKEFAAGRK

COc1cc(Br)cc(C(=O)Nc2ccc3c(c2)CNC3)c1
IC50 (Genome polyprotein [1]): > 99.5 µM
IC50 (Genome polyprotein [2]): > 100 µM

O=C1NCc2c1cccc2C(=O)Nc1ccc2c(c1)CNC2
IC50 (Genome polyprotein [1]): > 99.5 µM
IC50 (Genome polyprotein [2]): > 100 µM

O=C(NCC(F)F)[C@H](Nc1ccc2c(c1)CNC2)c1cc(Cl)cc(C2CC2)c1
IC50 (Genome polyprotein [1]): > 99.5 µM
IC50 (Genome polyprotein [2]): > 100 µM

CCCN1C(=O)[C@](C#N)(Nc2cccc(-c3nn[nH]n3)c2)c2cc(Cl)ccc21
IC50 (Genome polyprotein [1]): > 99.5 µM
IC50 (Genome polyprotein [2]): > 100 µM

NCc1ccc(NC(=O)c2cc(Cl)cc3[nH]ncc23)cc1F
IC50 (Genome polyprotein [1]): > 99.5 µM
IC50 (Genome polyprotein [2]): > 100 µM

O=c1[nH]c2cc(Cl)ccc2n1Cc1ccc(-c2nn[nH]n2)cc1
IC50 (Genome polyprotein [1]): > 99.5 µM
IC50 (Genome polyprotein [2]): > 100 µM

O=C(Nc1ccc2c(c1)CNC2)c1cnnc2ccccc12
IC50 (Genome polyprotein [1]): > 99.5 µM
IC50 (Genome polyprotein [2]): > 100 µM

C[C@H]1NCCc2c(-c3ccc4[nH]c(C(=O)O)cc4c3)cc(F)cc21
IC50 (Genome polyprotein [1]): > 99.5 µM
IC50 (Genome polyprotein [2]): > 100 µM

Cn1nc(C2CC2)cc1C(=O)Nc1cc(CCCN)ccn1
IC50 (Genome polyprotein [1]): > 99.5 µM
IC50 (Genome polyprotein [2]): > 100 µM

Cc1cc(C(F)(F)F)cc(C(=O)Nc2ccc3c(c2)CNC3)n1
IC50 (Genome polyprotein [1]): 48.6 µM
IC50 (Genome polyprotein [2]): > 100 µM

NS(=O)(=O)c1ccc(C(F)F)cc1-c1ccc2[nH]c(C(=O)O)cc2c1
IC50 (Genome polyprotein [1]): > 99.5 µM
IC50 (Genome polyprotein [2]): > 100 µM

O=C(Nc1ccc2c(c1)CNC2)[C@H]1CCCc2[nH]ncc21
IC50 (Genome polyprotein [1]): > 99.5 µM
IC50 (Genome polyprotein [2]): > 100 µM

Cc1nc(C2CC2)sc1C(=O)Nc1cc(CCCN)ccn1
IC50 (Genome polyprotein [1]): > 99.5 µM
IC50 (Genome polyprotein [2]): > 100 µM

O=C(Nc1ccc2c(c1)CNC2)c1ncnc2sccc12
IC50 (Genome polyprotein [1]): > 99.5 µM
IC50 (Genome polyprotein [2]): > 100 µM

O=C(Nc1cc(Cl)cc(-c2ccc(C3(C(=O)O)CCNCC3)cc2)c1)OCc1ccccc1
IC50 (Genome polyprotein [1]): > 99.5 µM
IC50 (Genome polyprotein [2]): > 100 µM

N[C@H]1CCc2ccc(NC(=O)c3cc(Cl)cc4[nH]ncc34)cc21
IC50 (Genome polyprotein [1]): > 99.5 µM
IC50 (Genome polyprotein [2]): > 100 µM

O=C(O)c1ccc2nc(Cc3c[nH]c4ccc(Cl)cc34)cn2c1
IC50 (Genome polyprotein [1]): > 99.5 µM
IC50 (Genome polyprotein [2]): > 100 µM

Cn1ccc(-c2cc(CN)cc([C@@H]3C[C@H]3c3cc(Cl)cc(NC(=O)OCc4ccccc4)c3)c2)n1
IC50 (Genome polyprotein [1]): 62.7 µM
IC50 (Genome polyprotein [2]): > 100 µM

CC(C)(C)OC(=O)Cc1cc(CN)cc(NC(=O)c2cc(Cl)cc(NC(=O)OCc3ccccc3)c2)c1
IC50 (Genome polyprotein [1]): > 99.5 µM
IC50 (Genome polyprotein [2]): > 100 µM

Cn1nc(C(=O)Nc2cc(CCCN)ccn2)cc1C1CC1
IC50 (Genome polyprotein [1]): > 99.5 µM
IC50 (Genome polyprotein [2]): > 100 µM

Clc1cc(CNc2ccc3c(c2)CNC3)c2cn[nH]c2c1
IC50 (Genome polyprotein [1]): 18.9 µM and 54.9 µM
IC50 (Genome polyprotein [2]): > 100 µM

NCc1cc(C(F)(F)F)cc(-c2ccc3[nH]c(C(=O)O)cc3c2)n1
IC50 (Genome polyprotein [1]): > 99.5 µM
IC50 (Genome polyprotein [2]): > 100 µM

O=C(Nc1ccc2c(c1)OCCNC2)c1cc(Cl)cc2[nH]ncc12
IC50 (Genome polyprotein [1]): > 99.5 µM
IC50 (Genome polyprotein [2]): > 100 µM

CNC(=O)[C@]1(Nc2ccc3c(c2)CNC3)CCc2ccccc21
IC50 (Genome polyprotein [1]): > 99.5 µM
IC50 (Genome polyprotein [2]): > 100 µM

Cn1cc(CNC(=O)[C@H](Nc2ccc3c(c2)CNC3)c2cc(Cl)cc(C3CC3)c2)cn1
IC50 (Genome polyprotein [1]): > 99.5 µM
IC50 (Genome polyprotein [2]): > 100 µM

C(#C[C@H](Nc1ccc2c(c1)CNC2)c1cccc2[nH]ncc12)c1ccccc1
IC50 (Genome polyprotein [1]): > 99.5 µM
IC50 (Genome polyprotein [2]): > 100 µM

O=C(O)c1cc2cc(-c3cc(Cl)cn4ncnc34)ccc2[nH]1
IC50 (Genome polyprotein [1]): > 99.5 µM
IC50 (Genome polyprotein [2]): > 100 µM

O=C(Nc1ccc2c(c1)COC2)c1cc(Cl)cc2[nH]ncc12
IC50 (Genome polyprotein [1]): > 99.5 µM
IC50 (Genome polyprotein [2]): > 100 µM

Cn1cc2cc(C#N)cc(-c3ccc4[nH]c(C(=O)O)cc4c3)c2n1
IC50 (Genome polyprotein [1]): > 99.5 µM
IC50 (Genome polyprotein [2]): > 100 µM

NCc1ccc(NC(=O)c2cc(Cl)cc3[nH]ncc23)cc1
IC50 (Genome polyprotein [1]): > 99.5 µM
IC50 (Genome polyprotein [2]): > 100 µM

Cn1cnc2nc(Cl)cc(C(=O)Nc3ccc4c(c3)CNC4)c21
IC50 (Genome polyprotein [1]): > 99.5 µM
IC50 (Genome polyprotein [2]): > 100 µM

NCc1cc(NC(=O)c2cc(Cl)cc(NC(=O)OCc3ccccc3)c2)cc(-c2ccc3c(c2)C[C@H](C(=O)O)CO3)c1
IC50 (Genome polyprotein [1]): 77.2 µM
IC50 (Genome polyprotein [2]): > 100 µM

C[C@H](NC(=O)c1cc(Cl)cc2[nH]ncc12)c1ccc2c(c1)CNC2
IC50 (Genome polyprotein [1]): > 99.5 µM
IC50 (Genome polyprotein [2]): > 100 µM

O=C(O)c1cc2cc(-c3cccc([C@H]4CCOC4)n3)ccc2[nH]1
IC50 (Genome polyprotein [1]): > 99.5 µM
IC50 (Genome polyprotein [2]): > 100 µM

NCCCc1ccnc(NC(=O)c2cc(C3CC3)no2)c1
IC50 (Genome polyprotein [1]): > 99.5 µM
IC50 (Genome polyprotein [2]): > 100 µM

NCCc1cccc(NC(=O)c2cc(Cl)cc3[nH]ncc23)c1
IC50 (Genome polyprotein [1]): > 99.5 µM
IC50 (Genome polyprotein [2]): > 100 µM

Cn1ncc2c(C(=O)Nc3ccc4c(c3)CNC4)cc(-c3cccnc3)nc21
IC50 (Genome polyprotein [1]): 92.7 µM
IC50 (Genome polyprotein [2]): > 100 µM

O=C(c1cc(Cl)cc2[nH]ncc12)N1CC[C@]2(CCNC2)C1
IC50 (Genome polyprotein [1]): > 99.5 µM
IC50 (Genome polyprotein [2]): > 100 µM

O=C(Nc1ccc2c(c1)CNCCO2)c1cc(Cl)cc2[nH]ncc12
IC50 (Genome polyprotein [1]): > 99.5 µM
IC50 (Genome polyprotein [2]): > 100 µM

O=C(NC[C@H]1CCCO1)[C@H](Nc1ccc2c(c1)CNC2)c1cc(Cl)cc(C2CC2)c1
IC50 (Genome polyprotein [1]): > 99.5 µM
IC50 (Genome polyprotein [2]): > 100 µM

CNC(=O)[C@]1(Nc2ccc3c(c2)CNC3)C(=O)Nc2c(OC)cc(Br)cc21
IC50 (Genome polyprotein [1]): > 99.5 µM
IC50 (Genome polyprotein [2]): > 100 µM

NCc1cc(-c2ccncc2)cc([C@@H]2C[C@H]2c2cc(Cl)cc(NC(=O)OCc3ccccc3)c2)c1
IC50 (Genome polyprotein [1]): > 99.5 µM
IC50 (Genome polyprotein [2]): > 100 µM

CC(=O)Nc1cc(Br)cc(C(=O)Nc2ccc3c(c2)CNC3)c1
IC50 (Genome polyprotein [1]): > 99.5 µM
IC50 (Genome polyprotein [2]): > 100 µM

CCn1ncc2c(C(=O)Nc3ccc4c(c3)CNC4)cc(C)nc21
IC50 (Genome polyprotein [1]): > 99.5 µM
IC50 (Genome polyprotein [2]): > 100 µM

O=C(O)c1ccc(NC(=O)c2cc(Cl)cc3[nH]ncc23)cc1
IC50 (Genome polyprotein [1]): > 99.5 µM
IC50 (Genome polyprotein [2]): > 100 µM

N#C[C@H](Nc1cc(Cl)cc(C2CC2)c1)c1ccc(-c2nn[nH]n2)cc1
IC50 (Genome polyprotein [1]): 27.2 µM
IC50 (Genome polyprotein [2]): 17.9 µM

Cc1ccc2[nH]ncc2c1C(=O)Nc1ccc2c(c1)CNC2
IC50 (Genome polyprotein [1]): > 99.5 µM
IC50 (Genome polyprotein [2]): > 100 µM

O=C(Nc1ccc2c(c1)CNC2)c1ccc(OCC(F)(F)F)nc1
IC50 (Genome polyprotein [1]): > 99.5 µM
IC50 (Genome polyprotein [2]): > 100 µM

O=C(O)Cc1cn2nc(-c3cc(Cl)cc(NC(=O)OCc4ccccc4)c3)ccc2n1
IC50 (Genome polyprotein [1]): > 99.5 µM
IC50 (Genome polyprotein [2]): > 100 µM

CNC(=O)c1ccnc(NC(=O)c2cc(C3CC3)n(C)c2C)c1
IC50 (Genome polyprotein [1]): > 99.5 µM
IC50 (Genome polyprotein [2]): > 100 µM

Cc1c(C(=O)Nc2cc([C@H]3CCOC3)ccn2)cc(C2CC2)n1C
IC50 (Genome polyprotein [1]): > 99.5 µM
IC50 (Genome polyprotein [2]): > 100 µM

O=C(Nc1ccc2c(c1)CNC2)c1ccc(F)c2[nH]ncc12
IC50 (Genome polyprotein [1]): 69.7 µM
IC50 (Genome polyprotein [2]): > 100 µM

O=C(O)c1cc2cc(-c3cc(Cl)cc4c3O[C@H](CO)C4)ccc2[nH]1
IC50 (Genome polyprotein [1]): > 99.5 µM
IC50 (Genome polyprotein [2]): > 100 µM

O=C(Nc1cccc2c1CNC2)c1cc(Cl)cc2[nH]ncc12
IC50 (Genome polyprotein [1]): > 99.5 µM
IC50 (Genome polyprotein [2]): > 100 µM

CCc1nc2ccc(Cl)cc2n1Cc1ccc2c(c1)CNC2
IC50 (Genome polyprotein [1]): > 99.5 µM
IC50 (Genome polyprotein [2]): > 100 µM

CC(C)(C)c1[nH]c2ccc(F)cc2c1Cc1ccc(-c2nnn[nH]2)cc1
IC50 (Genome polyprotein [1]): 23.6 µM
IC50 (Genome polyprotein [2]): 12.1 µM

O=C(O)Cn1nc2ccc(-c3cc(Cl)cc(NC(=O)OCc4ccccc4)c3)nn2c1=O
IC50 (Genome polyprotein [1]): > 99.5 µM
IC50 (Genome polyprotein [2]): > 100 µM

Cc1ccc(Oc2ncccc2C#N)c(-c2ccc3[nH]c(C(=O)O)cc3c2)c1
IC50 (Genome polyprotein [1]): 87.2 µM
IC50 (Genome polyprotein [2]): > 100 µM

O=C(Nc1ccc2c(c1)CNC2)c1cncc(N2CCOCC2)c1
IC50 (Genome polyprotein [1]): > 99.5 µM
IC50 (Genome polyprotein [2]): > 100 µM

CCn1c(C)cc(C(=O)Nc2cc(CCCN)ccn2)c1C
IC50 (Genome polyprotein [1]): > 99.5 µM
IC50 (Genome polyprotein [2]): > 100 µM

Cc1cc(C#N)cc2c(Cc3ccc(-c4nnn[nH]4)cc3)c[nH]c12
IC50 (Genome polyprotein [1]): 74.3 µM
IC50 (Genome polyprotein [2]): 35 µM

Cc1c(C(=O)Nc2ncc3c(c2C#N)CCOC3)cc(C2CC2)n1C
IC50 (Genome polyprotein [1]): > 99.5 µM
IC50 (Genome polyprotein [2]): > 100 µM

COCCCN1Cc2ccc(NC(=O)c3cc(Cl)cc4[nH]ncc34)cc2C1
IC50 (Genome polyprotein [1]): > 99.5 µM
IC50 (Genome polyprotein [2]): > 100 µM
